Measurements from PMC7467771, “Lipophilic Arginine Esters: The Gateway to Preservatives without Side Effects” (Molecular Pharmaceutics, 2020).

Assay: critical micelle concentration (CMC), pyrene fluorescent method
Format: physicochemical
Details: aqueous solution, 37 °C, 3 h
Protocol: The critical micelle concentration (CMC) is an important solution property of any amphiphilic compound and can be defined as the minimum concentration at which micelles start to form. The CMC of Arg-esters was determined using a pyrene fluorescent method as described in a previous publication.[15] Methanol solution of pyrene (2 μM) was added to several vials (250 μL per vial) and evaporated overnight to leave thin dried films of pyrene. Aqueous solutions of Arg-esters were prepared in a wide concentration range and were added to individual vials containing pyrene films in a 500 μL volume. The samples were left stirring at 400 rpm, 37 °C. After 3 h, the fluorescence of each sample was measured at the excitation wavelength of 334 nm, and emissions were taken at 372 (I1) nm and 393 nm (I3). A graph was plotted between the fluorescent intensity ratio (I3/I1) and the log concentration of Arg-ester. Then, from the resulting curve for each Arg-ester, the “CMC value” was calculated. For the calculation of the CMC, the segmental linear regression method was used, and CMC values were obtained as the concentration corresponding to the intercept of the extrapolations of the first segment and the rapidly varying second segment of the I3/I1 versus log concentration plot. […]

CCCCCCCCCCCCC(CCCCCCCCCC)COC(=O)[C@@H](N)CCCNC(=N)N.O=C(O)C(F)(F)F (some centres unmarked) [Arg-DT, 2-Decyltetradecyl Argininate Trifluoroacetate]
critical micelle concentration (CMC): 0.013 mM

CCCCCCCCC=CCCCCCCCCOC(=O)[C@@H](N)CCCNC(=N)N.O=C(O)C(F)(F)F [Arg-OL, Octadec-9-en-1-yl Argininate Trifluoroacetate]
critical micelle concentration (CMC): 0.52 mM
